Paper PMC7517831, “Integrating Machine Learning-Based Virtual Screening With Multiple Protein Structures and Bio-Assay Evaluation for Discovery of Novel GSK3β Inhibitors” (Frontiers in Pharmacology, 2020)

Target: T1, Glycogen synthase kinase-3β (GSK3β) (Homo sapiens, UniProt P49841)
T1 construct: gene GSK3B
Experiment: ADP-Glo luminescent kinase assay, nine-point dose curve
Type: biochemical

T1 sequence (P49841 whole entry): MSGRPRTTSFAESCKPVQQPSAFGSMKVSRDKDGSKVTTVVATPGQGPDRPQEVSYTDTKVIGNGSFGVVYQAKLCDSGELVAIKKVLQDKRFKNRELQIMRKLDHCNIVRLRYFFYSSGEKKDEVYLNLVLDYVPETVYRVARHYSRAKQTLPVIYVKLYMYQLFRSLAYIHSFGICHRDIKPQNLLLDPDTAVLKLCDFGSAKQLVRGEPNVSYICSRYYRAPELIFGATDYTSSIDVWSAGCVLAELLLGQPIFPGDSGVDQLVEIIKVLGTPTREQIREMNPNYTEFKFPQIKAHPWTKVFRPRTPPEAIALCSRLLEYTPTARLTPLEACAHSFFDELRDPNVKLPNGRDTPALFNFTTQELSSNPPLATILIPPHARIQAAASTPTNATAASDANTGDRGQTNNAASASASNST

SMILES	IC50 [µM]
CC(C)(C)[C@H]1CCc2[nH]nc(C(=O)NC3CC3)c2C1 [Cpd49]	9.34
COc1cccc(-n2c(=S)sc3c(=O)[nH]c(SCC(=O)Nc4cccc(Cl)c4)nc32)c1 [Cpd22]	15.5
